Test results from ChEMBL document CHEMBL4229426, “Synthesis, antitumor activity evaluation and mechanistic study of novel hederacolchiside A1 derivatives bearing an aryl triazole moiety” (Bioorg Med Chem, 2018).
pIC50: −log10 of the molar value.

Experiments:
Type in all cases: functional, cell-based
A549 = test: Antiproliferative activity against human A549 cells after 48 hrs by MTT assay; conditions: A549, 48 h
PC-3 = test: Antiproliferative activity against human PC3 cells after 48 hrs by MTT assay; conditions: PC-3, 48 h
HL-60 = test: Antiproliferative activity against human HL60 cells after 48 hrs by MTT assay; conditions: HL-60, 48 h
HepG2 = test: Antiproliferative activity against human HepG2 cells after 48 hrs by MTT assay; conditions: HepG2, 48 h
U-937 = test: Antiproliferative activity against human U937 cells after 48 hrs by MTT assay; conditions: U-937, 48 h
HT-29 = test: Antiproliferative activity against human HT-29 cells after 48 hrs by MTT assay; conditions: HT-29, 48 h

pIC50 (A549)	pIC50 (PC-3)	pIC50 (HL-60)	pIC50 (HepG2)	pIC50 (U-937)	pIC50 (HT-29)	Structure (SMILES)
6.55	4.33	5.33	4.48	6.11	5.19	CC(=O)c1ccc(-n2cc(CNC(=O)[C@]34CCC(C)(C)C[C@H]3C3=CC[C@@H]5[C@@]6(C)CC[C@H](O[C@@H]7OC[C@H](O[C@@H]8O[C@H](CO)[C@@H](O)[C@H](O)[C@H]8O)[C@H](O)[C@H]7O[C@@H]7O[C@@H](C)[C@H](O)[C@@H](O)[C@H]7O)C(C)(C)[C@@H]6CC[C@@]5(C)[C@]3(C)CC4)nn2)cc1
4.33	4.39	5.00	4.70	5.04	4.42	C[C@@H]1O[C@@H](O[C@H]2[C@H](O[C@H]3CC[C@]4(C)[C@H]5CC=C6[C@@H]7CC(C)(C)CC[C@]7(C(=O)NCc7cn(-c8cccnc8)nn7)CC[C@@]6(C)[C@]5(C)CC[C@H]4C3(C)C)OC[C@H](O[C@@H]3O[C@H](CO)[C@@H](O)[C@H](O)[C@H]3O)[C@@H]2O)[C@H](O)[C@H](O)[C@H]1O
5.31	6.26	5.61	5.45	6.10	5.95	COc1ccc(-n2cc(CNC(=O)[C@]34CCC(C)(C)C[C@H]3C3=CC[C@@H]5[C@@]6(C)CC[C@H](O[C@@H]7OC[C@H](O[C@@H]8O[C@H](CO)[C@@H](O)[C@H](O)[C@H]8O)[C@H](O)[C@H]7O[C@@H]7O[C@@H](C)[C@H](O)[C@@H](O)[C@H]7O)C(C)(C)[C@@H]6CC[C@@]5(C)[C@]3(C)CC4)nn2)cc1
